Experimental data reported in patent publication US10104893B2, “Pesticidally active polycyclic derivatives with sulfur substituted five membered ring heterocyles” (Syngenta Participations AG, priority 2015, dated 2018).
Read-outs that look alike come from different tables or passages of the source.

Assays:
[1] = system: Plutella xylostella (Diamond Back Moth); test: Insecticidal action against Plutella xylostella; format: in vivo; conditions: 120 h, read-out: effect in at least one of the two categories (mortality or growth inhibition); for percent effect (mortality or growth inhibition) at 200 ppm: application rate of 200 ppm, artificial diet, L2 larvae, 5 days after infestation
Procedure: Example B7: Insecticidal Action Against Plutella xylostella (Diamond Back Moth)
(§1) 24-well microtiter plates with artificial diet were treated with aqueous test solutions prepared from 10′000 ppm DMSO stock solutions by pipetting. After drying, the plates were infested with L2 larvae (10 to 15 per well). The samples were assessed for mortality and growth inhibition in comparison to untreated samples 5 days after infestation.

[2] = system: Spodoptera littoralis (Egyptian Cotton Leaf Worm); test: Insecticidal action against Spodoptera littoralis, sprayed cotton leaf discs; format: in vivo; conditions: foliar, 72 h, read-out: control (mortality, anti-feeding effect, growth inhibition)
Procedure: Example B8: Insecticidal Action Against Spodoptera littoralis (Egyptian Cotton Leaf Worm)
Cotton leaf discs were placed onto agar in 24-well microtiter plates and sprayed with aqueous test solutions prepared from 10′000 ppm DMSO stock solutions. After drying the leaf discs were infested with five L1 larvae. The samples were assessed for mortality, anti-feeding effect, and growth inhibition in comparison to untreated samples 3 days after infestation. Control of Spodoptera littoralis by a test sample is given when at least one of the categories mortality, anti-feeding effect, and growth inhibition is higher than the untreated sample.

[3] = system: Euschistus heros (Neotropical Brown Stink Bug); test: Insecticidal action against Euschistus heros; format: in vivo; conditions: 120 h, read-out: effect in at least one of the two categories (mortality or growth inhibition); for percent effect (mortality or growth inhibition) at 200 ppm: application rate of 200 ppm, soybean leaves, N2 nymphs, 5 days after infestation
Procedure: Example B3: Insecticidal Action Against Euschistus heros (Neotropical Brown Stink Bug)
Soybean leaves on agar in 24-well microtiter plates were sprayed with aqueous test solutions prepared from 10′000 ppm DMSO stock solutions. After drying the leaves were infested with N2 nymphs. The samples were assessed for mortality and growth inhibition in comparison to untreated samples 5 days after infestation.

[4] = system: Diabrotica balteata (Corn Root Worm); test: Insecticidal action against Diabrotica balteata; format: in vivo; conditions: 96 h, read-out: effect in at least one of the two categories (mortality or growth inhibition); for percent effect (mortality or growth inhibition) at 200 ppm: application rate of 200 ppm, maize sprouts, L2 larvae, 4 days after infestation
Procedure: Example B2: Insecticidal Action Against Diabrotica balteata (Corn Root Worm)
as §1, with “Maize sprouts placed onto an agar layer in 24-well” for “24-well”, “plates” for “plates with artificial diet”, “spraying.” for “pipetting.”, “(6” for “(10”, “10” for “15”, “4” for “5”

[5] = system: Myzus persicae (Green Peach Aphid); test: Insecticidal action against Myzus persicae: feeding/contact activity; format: in vivo; conditions: foliar, 144 h
Procedure: Example B4: Insecticidal Action Against Myzus persicae (Green Peach Aphid): Feeding/Contact Activity
Sunflower leaf discs were placed onto agar in a 24-well microtiter plate and sprayed with aqueous test solutions prepared from 10′000 ppm DMSO stock solutions. After drying, the leaf discs were infested with an aphid population of mixed ages. The samples were assessed for mortality 6 days after infestation.

[6] = application rate of 200 ppm, cotton leaf discs, L1 larvae, 3 days after infestation

| SMILES | percent effect (mortality or growth inhibition) at 200 ppm [1] [%] | mortality at 200 ppm [2, 6] [%] | percent effect (mortality or growth inhibition) at 200 ppm [3] [%] | percent effect (mortality or growth inhibition) at 200 ppm [4] [%] | melting point [°C] | also measured |
| --- | --- | --- | --- | --- | --- | --- |
| CCS(=O)(=O)c1cc(I)sc1-c1nc2cc(C(F)(F)F)n(C)c(=O)c2n1C [A44, 2-(3-ethylsulfonyl-5-iodo-2-thienyl)-3,5-dimethyl-6-(trifluoromethyl)imidazo[4,5-c]pyridin-4-one] | ≥ 80 | ≥ 80 | ≥ 80 | ≥ 80 |  |  |
| CCn1c(C(F)(F)F)cc2nc(-c3sc(-c4cc(F)cc(F)c4)cc3S(=O)(=O)CC)n(C)c2c1=O |  |  |  |  | 180 to 182 |  |
| CCn1c(C(F)(F)F)cc2nc(-c3sc(-c4ccc(Cl)cc4)cc3S(=O)(=O)CC)n(C)c2c1=O [A2, 2-[5-(4-chlorophenyl)-3-ethylsulfonyl-2-thienyl]-5-ethyl-3-methyl-6-(trifluoromethyl)-3aH-imidazo[4,5-c]pyridin-4-one] |  |  |  |  |  | percent control (mortality or growth inhibition) at 200 ppm [1]: ≥ 80%; mortality at 200 ppm [2]: ≥ 80%; percent control (mortality or growth inhibition) at 200 ppm ([3]; in Glycine max): ≥ 80%; percent control (mortality or growth inhibition) at 200 ppm [4]: ≥ 80%; mortality at 200 ppm [5]: ≥ 80% |
| CCS(=O)(=O)c1sc(-c2ccc(Cl)cc2)nc1-c1nc2cc(C(F)(F)F)n(C)c(=O)c2n1C [A48, 2-[2-(4-chlorophenyl)-5-ethylsulfonyl-thiazol-4-yl]-3,5-dimethyl-6-(trifluoromethyl)imidazo[4,5-c]pyridin-4-one] | ≥ 80 | ≥ 80 | ≥ 80 | ≥ 80 |  |  |
| CCn1c(C(F)(F)F)cc2nc(-c3sc(-c4cccc(F)c4)cc3S(=O)(=O)CC)n(C)c2c1=O |  |  |  |  | 194 to 195 |  |
| CCSc1cc(-c2ccc(Cl)cc2)sc1-c1nc2cc(C(F)(F)F)n(CC)c(=O)c2n1C [A1, 2-[5-(4-chlorophenyl)-3-ethylsulfanyl-2-thienyl]-5-ethyl-3-methyl-6-(trifluoromethyl)-3aH-imidazo[4,5-c]pyridin-4-one] | ≥ 80 |  |  | ≥ 80 |  |  |
